Data reported in PMC13128454, “Mutant p53 protein accumulation is selectively targetable by proximity-inducing drugs” (Nature Chemical Biology, 2025).
Where “and” joins values, the source holds several entries; their conditions need not be identical. Equal entries are not always repeated.

What was measured:
Assay type in all cases: cell-based
[1] = tested on: Calu-1 cells stably expressing Halo–p53-Y220C (FL)–mCherry–2A–mTagBFP2-V5; experiment: CellTiter-Glo cell viability; details: Cell_Type Y220C
Protocol: (§1) Cells were plated in 384-well plates (typically 1,500 cells per well) with varying concentrations of compounds, with a total volume of 50 μl per well. CTG reagent was added (25 μl) to the solutions, mixed and read out using an EnVision 2105 multimode plate reader.

[2] = tested on: Halo–p53-R273H (FL)–mCherry 293T cells versus parental 293T cells; experiment: flow-cytometry growth competition; details: for normalized_mCherry_percentage: R273H, day 8, normalized to DMSO
In short: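 Marker-positive and marker-negative cells mixed, plated at low density and treated with varying compound concentrations, passaged and retreated as needed. Fluorophore-positive versus negative fractions quantified by flow cytometry, gated on untreated mixtures.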

[3] = tested on: PLK1 targets (cyclin B1, phospho-PLK-binding motif) in Halo–p53-Y220C ΔTAD–mCherry 293T cells; experiment: western blot for PLK1 targets; details: 8.5 h, double thymidine block
Protocol: (§2) Cells were split into a 10-cm dish at low confluency (20%) and grown overnight. Cells were synchronized with double thymidine block. Cells were treated with thymidine (2 mM) overnight and released into fresh medium for 8.5 h and then retreated with thymidine (2 mM) overnight. Cells were split into a six-well plate and released into medium containing compound for 8.5 h. Cells were pelleted and protein lysates were created using RIPA buffer containing Halt phosphatase and protease inhibitor (Thermo Fisher, 78440). Lysates were clarified by centrifugation (21,000g for 15 min) and the supernatant was denatured in 1× Lamelli buffer containing DTT by heating at 95 °C for 5 min. The resulting protein was loaded onto a Tris–acetate gel, transferred onto a PVDF membrane and treated with primary antibodies: cyclin B1 (D5C10, Cell Signaling Technologies, 12231T; 1:1,000) and phospho-PLK-binding motif (D73F6, Cell Signaling Technologies, 5243T; 1:1,000). The membrane was stained with IRDye 800CW goat anti-rabbit IgG secondary antibody (Licor Biosciences; 1:20,000) and imaged on an Odyssey DLx.

[4] = tested on: PLK1 targets (cyclin B1, phospho-PLK-binding motif) in parental 293T cells; experiment: western blot for PLK1 targets; details: 8.5 h, double thymidine block
Protocol: as §2

[5] = tested on: p53 transcriptional targets in Huh7 cells (TP53^Y220C/Y220C); experiment: Huh7 RNA-seq and GSEA; details: 4 μM, 24 h, versus DMSO
Protocol: Huh7 cells were passaged into six-well plates and treated with PMV6 (4 μM), p53-01 (4 μM) or DMSO for 24 h. Cells were washed once with cold PBS. Subsequently, TRIzol (Invitrogen) was added to cells and, following the manufacturer’s protocol, RNA was extracted. RNA concentration was monitored using a Qubit fluorometer (Thermo Fisher) and RNA integrity was analyzed using an Agilent Bioanalyzer. The NEBNext Ultra II RNA library prep kit (Illumina) was used to prepare an RNA-seq library. A NovaSeq 6000 machine (Illumina) was used for paired-end 150-bp RNA-seq. STAR/RSEM[68],[71] was used to align RNA-seq reads to the GENCODE v38 transcript ref.[72] and generate a count matrix. Raw counts were rounded and DESeq2 was used for downstream analysis. A preranked GSEA[74] was performed using the DESeq2 t statistic (versus DMSO-treated cells) as a rank metric using the Fischer p53 targets geneset.

[6] = CellTiter-Glo cell viability; parameters: p5301_AUC_to_10uM / AUC_rezatapopt: scale not given here; viability, replicates (sheet 4G): unit not given here; details: human, MFE319 cells, No PMV6, read-out: viability, replicates (sheet 4G)
Protocol: as §1

MFE319 cells = experiment: CellTiter-Glo cell viability; parameters: p5301_AUC_to_10uM / AUC_rezatapopt: scale not given here; viability, replicates (sheet 4G): unit not given here; details: for mean_norm (normalized viability): 4 day; for viability, replicates (sheet 4G): No PMV6
Protocol: as §1

[7] = p53-01 Concentration (µM) 0.0390625
[8] = p53-01 Concentration (µM) 0.078125
[9] = p53-01 Concentration (µM) 0.625

## CC[C@@H]1C(=O)N(C)c2cnc(Nc3ccc(C(=O)NC4CCN(C)CC4)cc3OC)nc2N1C1CCCC1 [BI2536]
[1]; Concentration 0.00976562
  mean_norm: 1.033
[1]; Concentration 0.0195312
  mean_norm: 1.042
[1]; Concentration 0.0390625
  mean_norm: 1.012
[1]; Concentration 0.078125
  mean_norm: 1.001
[1]; Concentration 0.15625
  mean_norm: 1.013
[1]; Concentration 0.3125
  mean_norm: 0.9845
[1]; Concentration 0.625
  mean_norm: 0.8987
[1]; Concentration 1.25
  mean_norm: 0.7731
[1]; Concentration 2.5
  mean_norm: 0.741
[1]; Concentration 5
  mean_norm: 0.654

## CC[C@@H]1C(=O)N(C)c2cnc(Nc3ccc(C(=O)NCCOCCOCCOCCOCCC(=O)N4CCC(Nc5cccc6c5cc(C#CCNc5ccc(S(C)(=O)=O)cc5OC)n6CC(F)(F)F)CC4)cc3OC)nc2N1C1CCCC1 [p53-01, PMV6-PEG4-BI2536]
[2]; 1 nM
  normalized_mCherry_percentage: 95.51%
[2]; 10 nM
  normalized_mCherry_percentage: 97.26%
[2]; 100 nM
  normalized_mCherry_percentage: 96.23%
[2]; 1 uM
  normalized_mCherry_percentage: 90.97%
[2]; day 8
  activity in competition: did not observe any activity
[3]
  PLK1 substrates by western blot: phenocopied BI2536
[4]
  PLK1 substrates by western blot: not in parental cells
[5]
  normalized enrichment score (NES), Fischer p53 targets: 1.33
[6]; [7]
  viability at 0.0390625 µM: 94%
[6]; [8]
  viability at 0.078125 µM: 99.7%
[6]; [9]
  viability at 0.625 µM: 85.4%
[6]; p53-01 Concentration (µM) 1.25
  viability at 1.25 µM: 61.2%
[6]; p53-01 Concentration (µM) 2.5
  viability at 2.5 µM: 41.5%
[6]; p53-01 Concentration (µM) 5
  viability at 5 µM: 30%
[6]; p53-01 Concentration (µM) 10
  viability at 10 µM: 22.2%
MFE319 cells; 96 h, MFE319, 4 day treatment
  IC50: 1.27 µM
MFE319 cells; MFE319
  p5301_AUC_to_10uM: 0.3547
MFE319 cells; MFE319, Concentration 39.0625
  mean_norm (normalized viability): 0.968
MFE319 cells; MFE319, Concentration 78.125
  mean_norm (normalized viability): 0.9234
MFE319 cells; MFE319, Concentration 156.25
  mean_norm (normalized viability): 0.9253
MFE319 cells; MFE319, Concentration 312.5
  mean_norm (normalized viability): 0.9948
MFE319 cells; MFE319, Concentration 625
  mean_norm (normalized viability): 0.9099
MFE319 cells; MFE319, Concentration 1250
  mean_norm (normalized viability): 0.6095
MFE319 cells; MFE319, Concentration 2500
  mean_norm (normalized viability): 0.3193
MFE319 cells; MFE319, Concentration 5000
  mean_norm (normalized viability): 0.2865
MFE319 cells; MFE319, Concentration 10000
  mean_norm (normalized viability): 0.2268
MFE319 cells; log Concentration (nM) 0.68867
  relative viability, replicates (sheet 4E): 1.049 and 0.9314 and 0.9072 and 0.917
MFE319 cells; log Concentration (nM) 0.9897
  relative viability, replicates (sheet 4E): 0.9806 and 0.996 and 0.993 and 0.8521
MFE319 cells; log Concentration (nM) 1.29073
  relative viability, replicates (sheet 4E): 0.9742 and 1.022 and 0.9775 and 0.9343
MFE319 cells; log Concentration (nM) 1.59176
  relative viability, replicates (sheet 4E): 1.009 and 1.026 and 0.9509 and 0.8871
MFE319 cells; log Concentration (nM) 1.89279
  relative viability, replicates (sheet 4E): 0.9459 and 0.9044 and 0.9452 and 0.8983
MFE319 cells; log Concentration (nM) 2.19382
  relative viability, replicates (sheet 4E): 0.8852 and 0.9848 and 0.9106 and 0.9206
MFE319 cells; log Concentration (nM) 2.49485
  relative viability, replicates (sheet 4E): 1.036 and 1.016 and 1.021 and 0.9075
MFE319 cells; log Concentration (nM) 2.79588
  relative viability, replicates (sheet 4E): 0.9347 and 0.9684 and 0.8932 and 0.8433
MFE319 cells; log Concentration (nM) 3.09691
  relative viability, replicates (sheet 4E): 0.6355 and 0.6443 and 0.6092 and 0.549
MFE319 cells; log Concentration (nM) 3.39794
  relative viability, replicates (sheet 4E): 0.3339 and 0.3826 and 0.2998 and 0.2608
MFE319 cells; log Concentration (nM) 3.69897
  relative viability, replicates (sheet 4E): 0.3202 and 0.3151 and 0.2607 and 0.2498
MFE319 cells; [7]
  viability, replicates (sheet 4G): 87.9896 and 96.6442 and 88.8312
MFE319 cells; [8]
  viability, replicates (sheet 4G): 105.101 and 108.114 and 111.169
MFE319 cells; p53-01 Concentration (µM) 0.15625
  viability, replicates (sheet 4G): 94.6597 and 96.7065 and 100.094 and 89.7143
MFE319 cells; p53-01 Concentration (µM) 0.3125
  viability, replicates (sheet 4G): 90.6182 and 88.5922 and 96.6649 and 91.0338
MFE319 cells; [9]
  viability, replicates (sheet 4G): 77.5481 and 91.8338 and 80.5818
MFE319 cells; p53-01 Concentration (µM) 1.25
  viability, replicates (sheet 4G): 68.0623 and 80.2078 and 68.1143
MFE319 cells; p53-01 Concentration (µM) 2.5
  viability, replicates (sheet 4G): 46.5039 and 41.4649 and 46.0156
MFE319 cells; p53-01 Concentration (µM) 5
  viability, replicates (sheet 4G): 29.174 and 32.0623 and 26.6805
MFE319 cells; p53-01 Concentration (µM) 10
  viability, replicates (sheet 4G): 23.1584 and 24.4468 and 23.2416
MFE319 cells; p53-01 with PMV6 2.5 μM, CTG 4 days
  rescue of viability decline by PMV6: partially compete the decline in cell viability
